In ChEMBL document CHEMBL1201862, “PubChem BioAssay data set” (2004):
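Where inhibition never reached the appropriate level, the endpoint shown equals the highest concentration tested. Otherwise, values were interpolated linearly from a five-concentration, 48-hour dose response in 96-well plates. GI50 = concentration required for 50% inhibition of growth.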 Calls of active or inactive are those of the source. Rule as the data show it: active = GI50 up to about 1.1 µM and inactive = higher.

Experiments:
Assay in all cases: DTP human tumour cell line panel, 48 h
[1] = tested on: A498
[2] = tested on: A549
[3] = tested on: ACHN
[4] = tested on: CCRF-CEM
[5] = tested on: COLO 205
[6] = tested on: HCT-116
[7] = tested on: IGROV-1
[8] = tested on: MDA-MB-231
[9] = tested on: NCI-H460
[10] = tested on: NCI/ADR-RES
[11] = tested on: OVCAR-4
[12] = tested on: SF-295
[13] = tested on: SNB-19
[14] = tested on: UACC-257
[15] = tested on: KM12
[16] = tested on: SF-268
[17] = tested on: SF-539
[18] = tested on: UACC-62
[19] = tested on: BT-549
[20] = tested on: Malme-3M

Measured: GI50

COP(=O)(O)C(N)Cc1c[nH]c2ccccc12 (stereo not drawn)
inactive: [1] > 100 µM | [2] > 100 µM | [3] > 100 µM | [4] > 100 µM | [5] > 100 µM | [6] > 100 µM | [7] > 100 µM | [8] > 100 µM | [9] > 100 µM | [10] > 100 µM | [11] > 100 µM | [12] > 100 µM | [13] > 100 µM | [14] > 100 µM

CN1N=C(c2ccncc2)OC1c1cccc(F)c1 (stereo not drawn)
inactive: [1] > 100 µM | [2] > 100 µM | [3] > 100 µM | [4] > 100 µM | [5] > 100 µM | [6] > 100 µM | [7] > 100 µM | [15] > 100 µM | [8] > 100 µM | [9] > 100 µM | [10] > 100 µM | [11] > 100 µM | [16] > 100 µM | [12] > 100 µM | [17] > 100 µM | [13] > 100 µM | [14] > 100 µM | [18] > 100 µM

c1ccc(Nc2nnc(-c3ccccc3Nc3ccccc3-c3nnc(Nc4ccccc4)s3)s2)cc1
inactive: [3] > 100 µM | [19] > 100 µM | [4] > 100 µM | [5] > 100 µM | [6] > 100 µM | [7] 7.14 µM | [15] > 100 µM | [20] > 100 µM | [9] > 100 µM | [10] > 100 µM | [11] > 100 µM | [16] > 100 µM | [12] > 100 µM | [17] > 100 µM | [13] > 100 µM | [14] > 100 µM | [18] > 100 µM

COc1cccc(-c2cc(=O)c3cc(N4CCCCC4)ccc3[nH]2)c1
inactive: [20] 13.7 µM | [11] 1.51 µM | [14] > 100 µM
active: [1] 0.0188 µM | [2] < 0.0206 µM | [3] < 0.0186 µM | [4] < 0.01 µM | [5] < 0.0139 µM | [6] < 0.01 µM | [7] 0.0397 µM | [15] < 0.01 µM | [8] 0.0432 µM | [9] < 0.0199 µM | [10] 0.02 µM | [16] 0.16 µM | [12] 0.0119 µM | [17] < 0.01 µM | [13] < 0.0117 µM | [18] < 0.01 µM

CC1(C)[C@@H](Cn2nnc3c(N)ncnc32)CC[C@@]1(C)CO
inactive: [1] > 100 µM | [2] > 100 µM | [3] > 100 µM | [4] > 100 µM | [6] > 100 µM | [15] > 100 µM | [8] > 100 µM | [10] > 100 µM | [11] > 100 µM | [16] > 100 µM | [12] > 100 µM | [17] > 100 µM | [13] > 100 µM | [14] > 100 µM | [18] > 100 µM

O=[N+]([O-])C(/C=C(\Cl)[N+](=O)[O-])=C(N1CCOCC1)N1CCOCC1
inactive: [1] 27 µM | [2] 19.4 µM | [3] 41.7 µM | [4] 56.9 µM | [5] 19.8 µM | [6] 25.3 µM | [7] > 100 µM | [15] > 100 µM | [8] 23.3 µM | [20] 27.2 µM | [9] > 100 µM | [10] > 100 µM | [11] 25.9 µM | [16] 35.5 µM | [12] > 100 µM | [17] 22.3 µM | [13] > 100 µM | [14] > 100 µM | [18] 85.7 µM

C=C1C(=O)O[C@H]2C(=O)[C@H](C)CCC[C@@](C)(O)/C=C\C[C@@]3(C)O[C@@H]3C[C@@H]12
inactive: [1] 16.1 µM | [2] 19 µM | [3] 8.02 µM | [4] 2.67 µM | [5] 16.2 µM | [6] 7.29 µM | [7] 20.3 µM | [15] 22.2 µM | [8] 21.7 µM | [9] 26.5 µM | [10] 39.4 µM | [16] 23.3 µM | [12] 5.28 µM | [17] 19.3 µM | [13] 35.8 µM | [14] 14.1 µM | [18] 18.4 µM

C[C@]12C[C@@H](OC(=O)[C@]1(C)O)[C@@H]([C@]1(O)CC[C@H]3[C@@H]4C[C@H]5O[C@]56C[C@H]5O[C@H]5C(=O)[C@]6(C)[C@H]4CC[C@@]31C)C2
inactive: [1] > 50 µM | [2] > 50 µM | [3] > 50 µM | [4] > 50 µM | [5] > 50 µM | [6] > 50 µM | [7] > 50 µM | [15] > 50 µM | [8] > 50 µM | [20] > 5 µM | [9] > 50 µM | [10] > 50 µM | [11] 27.5 µM | [16] > 50 µM | [12] > 50 µM | [17] > 50 µM | [13] > 50 µM | [14] > 50 µM | [18] > 50 µM
